# Test results as given in patent US20230293526A1, “METHOD FOR TREATING CANCER WITH A REVERSE TRANSCRIPTASE INHIBITOR” (PrimeFour Therapeutics, Inc., priority 2020, published 2023).
# System: cancer cell lines
# Test: Cancer cell proliferation activity of representative nucleosides, CellTiterGlo 72 h (Example 7, Tables 8 and 9)
# Type: cell-based
# Method: Dose response relationships on cell proliferation was assessed for representative nucleosides on cancer cell lines. Briefly, compound treatment of cells started one day after seeding with a final DMSO concentration of 0.1%, and was performed by nanodrop-dispensing using a Tecan Dispenser. 0.1% DMSO (solvent) and Staurosporine (10 μM) served as high control (100% viability) and low control (0% viability), respectively. Cells were cultured in the appropriate media. For the assays, cells were seeded in white cell culture-treated flat and clear bottom multiwell plates and incubated at 37° C. overnight before compound was added. After incubation for 72 h at 37° C. at 5% or 10% CO2 dependent on the medium, cell plates were equilibrated to room temperature for one hour, CellTiterGlo reagent (Promega) was added and luminescence was measured approximately an hour later using a luminometer.
# Raw data were converted into percent cell viability relative to the high and low control, which were set to 100% and 0%, respectively.
smiles,measurement,setting,value
Nc1ccn([C@H]2C[C@H](O)[C@](CO)(CF)O2)c(=O)n1 [compound 32],IC50,"72 h, 5637, 72 h (Table 9)",450 nM
same,IC50,"72 h, CLS439, 72 h (Table 9)",2270 nM
same,IC50,"72 h, HS729, 72 h (Table 9)",580 nM
same,IC50,"72 h, J82, 72 h (Table 9)",760 nM
same,IC50,"72 h, JAR, 72 h (Table 9)",> 50000 nM
same,IC50,"72 h, MT3, 72 h (Table 9)",80 nM
same,IC50,"72 h, PC3, 72 h (Table 9)",180 nM
same,IC50,"72 h, RD, 72 h (Table 9)",1030 nM
same,IC50,"72 h, T24, 72 h (Table 9)",290 nM
same,IC50,"Homo sapiens, 22Rv1, 72 h, 22RV1, 72 h (Table 9)",1330 nM
same,IC50,"Homo sapiens, 786-0, 72 h, 786O, 72 h (Table 9)",1070 nM
same,IC50,"Homo sapiens, A204, 72 h, A204, 72 h (Table 9)",20 nM
same,IC50,"Homo sapiens, A549, 72 h, A549, 72 h (Table 9)",440 nM
same,IC50,"Homo sapiens, A673, 72 h, A673, 72 h (Table 9)",1740 nM
same,IC50,"Homo sapiens, A2780, 72 h, A2780, 72 h (Table 9)",720 nM
same,IC50,"Homo sapiens, A-375, 72 h, A375, 72 h (Table 9)",710 nM
same,IC50,"Homo sapiens, A-431, 72 h, A431, 72 h (Table 9)",470 nM
same,IC50,"Homo sapiens, ACHN, 72 h, 72 h (Table 9)",390 nM
same,IC50,"Homo sapiens, ASPC1, 72 h, ASPC1, 72 h (Table 9)",580 nM
same,IC50,"Homo sapiens, BT-20, 72 h, BT20, 72 h (Table 9)",580 nM
same,IC50,"Homo sapiens, BXPC-3, 72 h, BXPC3, 72 h (Table 9)",540 nM
same,IC50,"Homo sapiens, C-33-A, 72 h, C33A, 72 h (Table 9)",240 nM
same,IC50,"Homo sapiens, CAKI-1, 72 h, CAKI1, 72 h (Table 9)",110 nM
same,IC50,"Homo sapiens, COLO 205, 72 h, COLO205, 72 h (Table 9)",210 nM
same,IC50,"Homo sapiens, COLO-678, 72 h, COLO678, 72 h (Table 9)",3760 nM
same,IC50,"Homo sapiens, Ca-Ski, 72 h, CASKI, 72 h (Table 9)",3960 nM
same,IC50,"Homo sapiens, Caco-2, 72 h, CACO2, 72 h (Table 9)",> 50000 nM
same,IC50,"Homo sapiens, Calu-6, 72 h, CALU6, 72 h (Table 9)",720 nM
same,IC50,"Homo sapiens, DLD-1, 72 h, DLD1, 72 h (Table 9)",2650 nM
same,IC50,"Homo sapiens, DU-145, 72 h, DU145, 72 h (Table 9)",310 nM
same,IC50,"Homo sapiens, EFO-21, 72 h, EFO21, 72 h (Table 9)",790 nM
same,IC50,"Homo sapiens, EJ-28, 72 h, EJ28, 72 h (Table 9)",1530 nM
same,IC50,"Homo sapiens, Granta-519, 72 h, GRANTA-519, 72 h (Table 9)",70 nM
same,IC50,"Homo sapiens, HCT-15, 72 h, HCT15, 72 h (Table 9)",460 nM
same,IC50,"Homo sapiens, HCT-116, 72 h, HCT116, 72 h (Table 9)",470 nM
same,IC50,"Homo sapiens, HEK293, 72 h, HEK293, 72 h (Table 9)",> 50000 nM
same,IC50,"Homo sapiens, HL-60, 72 h, HL-60, 72 h (Table 9)",1010 nM
same,IC50,"Homo sapiens, HT-29, 72 h, HT29, 72 h (Table 9)",1270 nM
same,IC50,"Homo sapiens, HT-1080, 72 h, HT1080, 72 h (Table 9)",380 nM
same,IC50,"Homo sapiens, HeLa, 72 h, 72 h (Table 9)",1000 nM
same,IC50,"Homo sapiens, HepG2, 72 h, HEPG2, 72 h (Table 9)",1000 nM
same,IC50,"Homo sapiens, Hs-578T, 72 h, HS578T, 72 h (Table 9)",970 nM
same,IC50,"Homo sapiens, IGROV-1, 72 h, IGROV1, 72 h (Table 9)",510 nM
same,IC50,"Homo sapiens, IMR-90, 72 h, IMR90, 72 h (Table 9)",1580 nM
same,IC50,"Homo sapiens, JEG-3, 72 h, JEG3, 72 h (Table 9)",3340 nM
same,IC50,"Homo sapiens, JIMT-1, 72 h, JIMT1, 72 h (Table 9)",190 nM
same,IC50,"Homo sapiens, K562, 72 h, K-562, 72 h (Table 9)",4450 nM
same,IC50,"Homo sapiens, Kasumi 1, 72 h, KASUMI-1, 72 h (Table 9)",270 nM
same,IC50,"Homo sapiens, L-363, 72 h, L-363, 72 h (Table 9)",> 50000 nM
same,IC50,"Homo sapiens, LoVo, 72 h, 72 h (Table 9)",290 nM
same,IC50,"Homo sapiens, MCF7, 72 h, MCF7, 72 h (Table 9)",3170 nM
same,IC50,"Homo sapiens, MDA-MB-231, 72 h, MDAMB231, 72 h (Table 9)",100 nM
same,IC50,"Homo sapiens, MDA-MB-435, 72 h, MDAMB435, 72 h (Table 9)",1300 nM
same,IC50,"Homo sapiens, MDA-MB-436, 72 h, MDAMB436, 72 h (Table 9)",950 nM
same,IC50,"Homo sapiens, MDA-MB-468, 72 h, MDAMB468, 72 h (Table 9)",3110 nM
same,IC50,"Homo sapiens, MG-63, 72 h, MG63, 72 h (Table 9)",480 nM
same,IC50,"Homo sapiens, MHH-ES-1, 72 h, MHHES1, 72 h (Table 9)",1660 nM
same,IC50,"Homo sapiens, MIA PaCa-2, 72 h, MIAPACA2, 72 h (Table 9)",1150 nM
same,IC50,"Homo sapiens, MINO, 72 h, 72 h (Table 9)",60 nM
same,IC50,"Homo sapiens, MV4-11, 72 h, MV4-11, 72 h (Table 9)",840 nM
same,IC50,"Homo sapiens, NCI-H23, 72 h, NCI-H23, 72 h (Table 9)",720 nM
same,IC50,"Homo sapiens, NCI-H82, 72 h, NCIH82, 72 h (Table 9)",1150 nM
same,IC50,"Homo sapiens, NCI-H292, 72 h, NCIH292, 72 h (Table 9)",920 nM
same,IC50,"Homo sapiens, NCI-H460, 72 h, NCIH460, 72 h (Table 9)",770 nM
same,IC50,"Homo sapiens, OVCAR-3, 72 h, OVCAR3, 72 h (Table 9)",640 nM
same,IC50,"Homo sapiens, OVCAR-4, 72 h, OVCAR4, 72 h (Table 9)",8050 nM
same,IC50,"Homo sapiens, PANC-1, 72 h, PANC1, 72 h (Table 9)",620 nM
same,IC50,"Homo sapiens, PLC-PRF-5, 72 h, PLCPRF5, 72 h (Table 9)",> 50000 nM
same,IC50,"Homo sapiens, Panc1005, 72 h, PANC1005, 72 h (Table 9)",> 50000 nM
same,IC50,"Homo sapiens, Ramos, 72 h, 72 h (Table 9)",240 nM
same,IC50,"Homo sapiens, SAOS-2, 72 h, SAOS2, 72 h (Table 9)",110 nM
same,IC50,"Homo sapiens, SF-268, 72 h, SF268, 72 h (Table 9)",260 nM
same,IC50,"Homo sapiens, SF-295, 72 h, SF295, 72 h (Table 9)",3250 nM
same,IC50,"Homo sapiens, SK-BR-3, 72 h, SKBR3, 72 h (Table 9)",260 nM
same,IC50,"Homo sapiens, SK-HEP1, 72 h, SKHEP1, 72 h (Table 9)",320 nM
same,IC50,"Homo sapiens, SK-LMS-1, 72 h, SKLMS1, 72 h (Table 9)",860 nM
same,IC50,"Homo sapiens, SK-MEL-5, 72 h, SKMEL5, 72 h (Table 9)",6180 nM
same,IC50,"Homo sapiens, SK-MEL-28, 72 h, SKMEL28, 72 h (Table 9)",1320 nM
same,IC50,"Homo sapiens, SK-N-AS, 72 h, SKNAS, 72 h (Table 9)",1220 nM
same,IC50,"Homo sapiens, SK-N-SH, 72 h, SKNSH, 72 h (Table 9)",> 50000 nM
same,IC50,"Homo sapiens, SK-OV-3, 72 h, SKOV3, 72 h (Table 9)",1460 nM
same,IC50,"Homo sapiens, SNB-75, 72 h, SNB75, 72 h (Table 9)",550 nM
same,IC50,"Homo sapiens, SU-DHL10, 72 h, SU-DHL-10, 72 h (Table 9)",560 nM
same,IC50,"Homo sapiens, SU-DHL-6, 72 h, SU-DHL-6, 72 h (Table 9)",310 nM
same,IC50,"Homo sapiens, SW-620, 72 h, SW620, 72 h (Table 9)",1140 nM
same,IC50,"Homo sapiens, TE-671, 72 h, TE671, 72 h (Table 9)",1020 nM
same,IC50,"Homo sapiens, THP-1, 72 h, THP-1, 72 h (Table 9)",650 nM
same,IC50,"Homo sapiens, U2OS, 72 h, 72 h (Table 9)",2450 nM
same,IC50,"Homo sapiens, U-87 MG, 72 h, U87MG, 72 h (Table 9)",400 nM
same,IC50,"Homo sapiens, UMUC3, 72 h, UMUC3, 72 h (Table 9)",1210 nM
same,IC50,"Homo sapiens, UO-31, 72 h, UO31, 72 h (Table 9)",550 nM
same,IC50,"Homo sapiens, WSU-NHL, 72 h, 72 h (Table 9)",150 nM
same,IC50,"NCI-H358M, 72 h, NCIH358M, 72 h (Table 9)",120 nM
same,IC50,"PBMC, 72 h, 72 h (Table 9)",710 nM
same,IC50,"RD-ES, 72 h, RDES, 72 h (Table 9)",1900 nM
